System: 292921-168-R-J2-PDC KRAS tumor spheroid viability
Assay: Anticancer human tumor 292921-168-R-J2-PDC patient-derived pancreatic carcinoma cell line growth inhibition [KRAS2]
Settings: spheroids with HUVEC and MSC; for viability, T/C: stronger effect = lower value
Procedure, shortened: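 KRAS-mutant tumor cells were grown as spheroids with HUVEC endothelial cells and human MSCs as stroma. Targeted agents were tested alone and with KRAS pathway inhibitors. Doses started at or near clinical Cmax, or 10 microM, descending half-log.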

[1] = curve of first compound, second compound 0.1 µM
[2] = curve of first compound, second compound 0.316 µM
[3] = curve of first compound, second compound 1 µM
[4] = curve of first compound, second compound 3.16 µM
[5] = curve of first compound, second compound 10 µM
[6] = second compound 0.1 µM, first compound 0.0316 µM
[7] = second compound 0.1 µM, first compound 0.1 µM
[8] = second compound 0.1 µM, first compound 0.316 µM
[9] = second compound 0.1 µM, first compound 1 µM
[10] = second compound 0.1 µM, first compound 3.16 µM
[11] = second compound 0.1 µM, first compound 10 µM
[12] = second compound 0.316 µM, first compound 0.0316 µM
[13] = second compound 0.316 µM, first compound 0.1 µM
[14] = second compound 0.316 µM, first compound 0.316 µM
[15] = second compound 0.316 µM, first compound 1 µM
[16] = second compound 0.316 µM, first compound 3.16 µM
[17] = second compound 0.316 µM, first compound 10 µM
[18] = second compound 1 µM, first compound 0.0316 µM
[19] = second compound 1 µM, first compound 0.1 µM
[20] = second compound 1 µM, first compound 0.316 µM
[21] = second compound 1 µM, first compound 1 µM
[22] = second compound 1 µM, first compound 3.16 µM
[23] = second compound 1 µM, first compound 10 µM
[24] = second compound 3.16 µM, first compound 0.0316 µM
[25] = second compound 3.16 µM, first compound 0.1 µM
[26] = second compound 3.16 µM, first compound 0.316 µM
[27] = second compound 3.16 µM, first compound 1 µM
[28] = second compound 3.16 µM, first compound 3.16 µM
[29] = second compound 3.16 µM, first compound 10 µM
[30] = second compound 10 µM, first compound 0.0316 µM
[31] = second compound 10 µM, first compound 0.1 µM
[32] = second compound 10 µM, first compound 0.316 µM
[33] = second compound 10 µM, first compound 1 µM
[34] = second compound 10 µM, first compound 3.16 µM
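Also: drug exposure lasted seven days after spheroids formed for three days.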
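For viability, T/C in this document: percent of DMSO vehicle control viability which is 100%.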

| Compound | IC50 [1] [nM] | IC50 [2] [nM] | IC50 [3] [nM] | IC50 [4] [nM] | viability, T/C [6] [%] | viability, T/C [7] [%] | viability, T/C [8] [%] | viability, T/C [9] [%] | viability, T/C [10] [%] | viability, T/C [12] [%] | viability, T/C [13] [%] | viability, T/C [14] [%] | viability, T/C [15] [%] | viability, T/C [16] [%] | viability, T/C [18] [%] | viability, T/C [19] [%] | viability, T/C [20] [%] | viability, T/C [21] [%] | viability, T/C [22] [%] | viability, T/C [24] [%] | also measured |
| --- | --- | --- | --- | --- | --- | --- | --- | --- | --- | --- | --- | --- | --- | --- | --- | --- | --- | --- | --- | --- | --- |
| CC1(C)CCC(CN2CCN(c3ccc(C(=O)NS(=O)(=O)c4ccc(NCC5CCOCC5)c([N+](=O)[O-])c4)c(Oc4cnc5[nH]ccc5c4)c3)CC2)=C(c2ccc(Cl)cc2)C1 + C=CC(=O)N1CCN(c2nc(=O)n(-c3c(C)ccnc3C(C)C)c3nc(-c4c(O)cccc4F)c(F)cc23)C(C)C1 | 2270 | 2190 | 2020 | 1260 | 107 | 107 | 106 | 100 | 29.5 | 108 | 111 | 94.3 | 114 | 23.6 | 113 | 106 | 102 | 99.5 | 18.6 | 81.5 | IC50 [5]: < 31.6 nM; viability, T/C [11]: 8.37%; viability, T/C [17]: 8.55%; viability, T/C [23]: 9.16%; viability, T/C [25]: 80.8%; viability, T/C [26]: 67.8%; viability, T/C [27]: 59.8%; viability, T/C [28]: 13.9%; viability, T/C [29]: 10.9%; viability, T/C [30]: 28.4%; viability, T/C [31]: 18.8%; viability, T/C [32]: 21.6%; viability, T/C [33]: 20.5%; viability, T/C [34]: 7.43%; viability, T/C (second compound 10 µM, first compound 10 µM): 8.6% |
| Cn1nccc1Nc1nccc(-c2cc3c(s2)C(C)(C)N(CCN2CCOCC2)C3=O)n1 + C=CC(=O)N1CCN(c2nc(OCC3CCCN3C)nc3c2CCN(c2cccc4cccc(C)c24)C3)CC1CC#N | 77.8 | 59 | < 31.6 | < 31.6 | 80.2 | 41.4 | 21.6 | 12.5 | 11.1 | 63.5 | 38.6 | 16.2 | 12.2 | 9.88 | 30.9 | 18.4 | 8.49 | 8.54 | 7.25 | 0.45 | IC50 (curve of first compound, second compound 0.0316 µM): 93.1 nM; viability, T/C (second compound 0.0316 µM, first compound 0.0316 µM): 86.7%; viability, T/C (second compound 0.0316 µM, first compound 0.1 µM): 47.5%; viability, T/C (second compound 0.0316 µM, first compound 0.316 µM): 20.6%; viability, T/C (second compound 0.0316 µM, first compound 1 µM): 13%; viability, T/C (second compound 0.0316 µM, first compound 3.16 µM): 11.6%; viability, T/C (second compound 0.0316 µM, first compound 10 µM): 11.9%; viability, T/C [11]: 11.6%; viability, T/C [17]: 11.9%; viability, T/C [23]: 8.46%; viability, T/C [25]: 0.11%; viability, T/C [26]: 0.11%; viability, T/C [27]: 0.1%; viability, T/C [28]: 0.1%; viability, T/C [29]: 0.16% |
| CNCc1ccccc1-c1csc(C(C)Nc2nc(C)nc3cc(OC)c(OC)cc23)c1 (centres undefined) | – | – | – | – | – | – | – | – | – | – | – | – | – | – | – | – | – | – | – | – | viability, T/C (compound 0.316 µM): 88.7% [middle of 16 runs]; viability, T/C (compound 10 µM): 0.15% [middle of 14 runs]; IC50 (compound alone, run of 08/26/2021): 1.28 µM [middle of 5 runs]; IC50 (compound alone, run of 09/02/2021): 1.34 µM [middle of 5 runs] |
| CC(=O)OC12COC1CC(O)C1(C)C(=O)C(O)C3=C(C)C(OC(=O)C(O)C(NC(=O)OC(C)(C)C)c4ccccc4)CC(O)(C(OC(=O)c4ccccc4)C21)C3(C)C (centres undefined) + COc1cc2nc(C)nc(NC(C)c3cc(N)cc(C(F)(F)F)c3)c2cc1OC1CCOC1 | < 10 | < 10 | < 10 | < 10 | 15.2 | 10.7 | 12.1 | 14 | 19 | 14.7 | 10.9 | 12.6 | 14.7 | 18.8 | 16.2 | 13.6 | 10.9 | 16.1 | 18.9 | 13.4 | IC50 [5]: < 10 nM; viability, T/C (second compound 0.1 µM, first compound 0.01 µM): 13.7%; viability, T/C (second compound 0.316 µM, first compound 0.01 µM): 13.7%; viability, T/C (second compound 1 µM, first compound 0.01 µM): 13.3%; viability, T/C (second compound 3.16 µM, first compound 0.01 µM): 12.1%; viability, T/C [25]: 11.2%; viability, T/C [26]: 11.4%; viability, T/C [27]: 14.1%; viability, T/C [28]: 18.7%; viability, T/C (second compound 10 µM, first compound 0.01 µM): 13.5%; viability, T/C [30]: 13.3%; viability, T/C [31]: 14%; viability, T/C [32]: 12.8%; viability, T/C [33]: 11.9%; viability, T/C [34]: 13.2% |
